In PMC8076879 (Acta Pharmacologica Sinica, 2021):

Tests used:
in vitro = details: African green monkey
[1] = Cytotoxicity in HEK293T cells, CCK8 assay; assay type: cell-based; details: human
[2] = Cytotoxicity in Huh-7 cells, CCK8 assay; assay type: cell-based; details: human
SARS-CoV-2 = details: read-out: anti-SARS-CoV-2 EC50 (reported); cited from earlier work
[3] = cited from earlier work
[4] = cited from earlier work; remark: listed apart in the source

SMILES | CC50 (in vitro) [µM] | CC50 [1] [µM] | CC50 [2] [µM] | EC50 (SARS-CoV-2) [µM] | crossing of the blood-brain barrier [3] | toxicity in animal toxicological experiments [4]
CC[C@H]1CN2CCc3cc(OC)c(OC)cc3[C@@H]2C[C@@H]1C[C@H]1NCCc2cc(O)c(OC)cc21 [cephaeline] | 49 ± 46.3 | 2 ± 0.468 | 3.04 ± 1.7 | – | – | –
CC[C@H]1CN2CCc3cc(OC)c(OC)cc3[C@@H]2C[C@@H]1C[C@H]1NCCc2cc(OC)c(OC)cc21 [emetine] | 2.17 ± 0.258 | 0.0378 ± 0.000562 | 0.0334 ± 0.000617 | 0.46 | – | –
O[C@H]1[C@H]2c3cc4c(cc3CN3CCC(=C[C@@H]1O)[C@H]23)OCO4 [lycorine] | > 1000 | 1.04 ± 0.0734 | 0.834 ± 0.063 | 0.31 | able to cross the blood-brain barrier | low toxicity and mild side effects
